Test results taken from patent publication US20120115724A1, “METHOD OF CONTROLLING UNDESIRED VEGETATION” (SYNGENTA CROP PROTECTION LLC, priority 2009, published 2012).

How the values were obtained:
Assay type in all cases: in vivo
[1] = system: ABUTH Abutilon theophrasti; assay: Post-emergence crop and weed test (Example 15); conditions: 360 h, after 15 days, read-out: Percentage damage ABUTH
Protocol: (§1) Seeds of crop and representative weed species were sown in standard soil in pots. After cultivation for 14 days under controlled conditions in a glasshouse (at 22/16° C., day/night; 16 hours light; 65% humidity), the plants were sprayed. The spray solution was prepared by dissolving the technical active ingredient in acetone containing 10.56 wt % Emulsogen EL, 42.22 wt % N-methylpyrrolidone and 2.22 wt % DPG-monoethyl ether to give a 5% stock solution. This was then diluted with water containing 0.2% (v/v) of the adjuvant X-77 to give the desired treatment concentration.
(§2) The test plants were then grown on under controlled conditions in a glasshouse (at 22/16° C., day/night; 16 hours light; 65% humidity) and watered twice daily. After 15 days the test was evaluated (100 =total damage to plant; 0 =no damage to plant).

[2] = system: AMARE Amaranthus retroflexus; assay: Post-emergence crop and weed test (Example 15); conditions: 360 h, after 15 days, read-out: Percentage damage AMARE
Protocol: as §1, §2

[3] = system: CHEAL Chenopodium album; assay: Post-emergence crop and weed test (Example 15); conditions: 360 h, after 15 days, read-out: Percentage damage CHEAL
Protocol: as §1, §2

[4] = system: EPHHL Euphorbia heterophylla; assay: Post-emergence crop and weed test (Example 15); conditions: 360 h, after 15 days, read-out: Percentage damage EPHHL
Protocol: as §1, §2

[5] = system: GLXMA Soybean; assay: Post-emergence crop and weed test (Example 15); conditions: Glycine max, 360 h, after 15 days, read-out: Percentage damage GLXMA
Protocol: as §1, §2

[6] = system: IPOHE Ipomoea hederacea; assay: Post-emergence crop and weed test (Example 15); conditions: 360 h, after 15 days, read-out: Percentage damage IPOHE
Protocol: as §1, §2

[7] = system: KCHSC Kochia scoparia; assay: Post-emergence crop and weed test (Example 15); conditions: Bassia scoparia, 360 h, after 15 days, read-out: Percentage damage KCHSC
Protocol: as §1, §2

[8] = system: POLCO Polygonum convolvulus; assay: Post-emergence crop and weed test (Example 15); conditions: Fallopia convolvulus, 360 h, after 15 days, read-out: Percentage damage POLCO
Protocol: as §1, §2

[9] = system: SIDSP Sida spinosa; assay: Post-emergence crop and weed test (Example 15); conditions: 360 h, after 15 days, read-out: Percentage damage SIDSP
Protocol: as §1, §2

[10] = system: SINAR Sinapis arvensis; assay: Post-emergence crop and weed test (Example 15); conditions: Mutarda arvensis, 360 h, after 15 days, read-out: Percentage damage SINAR
Protocol: as §1, §2

[11] = system: VERPE Veronica persica; assay: Post-emergence crop and weed test (Example 15); conditions: 360 h, after 15 days, read-out: Percentage damage VERPE
Protocol: as §1, §2

[12] = system: XANST Xanthium strumarium; assay: Post-emergence crop and weed test (Example 15); conditions: 360 h, after 15 days, read-out: Percentage damage XANST
Protocol: as §1, §2

[13] = system: Alopecurus myosuroides (ALOMY); assay: Pre-emergence biological efficacy (Example 13); conditions: Alopecurus myosuroides, 312 h; pre-emergence, 1,000 g/ha, after 13 days; read-out: Percentage damage ALOMY
Protocol: (§3) Seeds of Alopecurus myosuroides (ALOMY), Setaria faberi (SETFA), Echinochloa crus-galli (ECHCG), Solanum nigrum (SOLNI), Amaranthus retroflexus (AMARE) and Ipomea hederaceae (IPOHE) were sown in standard soil in pots. After cultivation for one day under controlled conditions in a glasshouse (at 24/16° C., day/night; 14 hours light; 65% humidity), the plants were sprayed with an aqueous spray solution derived from the formulation of the technical active ingredient in acetone/water (50:50) solution containing 0.5% Tween 20 (polyoxyethylene sorbitan monolaurate, CAS RN 9005-64-5) to give a final dose of 250 or 1000g/ha of test compound. The test plants were then grown under controlled conditions in the glasshouse (at 24/16° C., day/night; 14 hours light; 65% humidity) and watered twice daily. After 13 days the test was evaluated (100 =total damage to plant; 0 =no damage to plant).

[14] = system: Amaranthus retroflexus (AMARE); assay: Pre-emergence biological efficacy (Example 13); conditions: Amaranthus retroflexus, 312 h; pre-emergence, 1,000 g/ha, after 13 days; read-out: Percentage damage AMARE
Protocol: as §3

[15] = system: Echinochloa crus-galli (ECHCG); assay: Pre-emergence biological efficacy (Example 13); conditions: Echinochloa crus-galli, 312 h; pre-emergence, 1,000 g/ha, after 13 days; read-out: Percentage damage ECHCG
Protocol: as §3

[16] = system: Ipomea hederaceae (IPOHE); assay: Pre-emergence biological efficacy (Example 13); conditions: Ipomoea hederacea, 312 h; pre-emergence, 1,000 g/ha, after 13 days; read-out: Percentage damage IPOHE
Protocol: as §3

[17] = system: Setaria faberi (SETFA); assay: Pre-emergence biological efficacy (Example 13); conditions: Setaria faberi, 312 h; pre-emergence, 1,000 g/ha, after 13 days; read-out: Percentage damage SETFA
Protocol: as §3

[18] = system: Solanum nigrum (SOLNI); assay: Pre-emergence biological efficacy (Example 13); conditions: Solanum nigrum, 312 h; pre-emergence, 1,000 g/ha, after 13 days; read-out: Percentage damage SOLNI
Protocol: as §3

[19] = system: Alopecurus myosuroides (ALOMY); assay: Post-emergence biological efficacy (Example 14); conditions: Alopecurus myosuroides, 312 h; post-emergence, 1,000 g/ha, after 13 days; read-out: Percentage damage ALOMY
Protocol: as §3, with “for 8 days” for “for one day”, “or 1000 g/ha” for “or 1000g/ha”, “grown on” for “grown”, “in a” for “in the”, “evaluated (100=total” for “evaluated (100 =total”, “plant; 0=no” for “plant; 0 =no”

[20] = system: Amaranthus retroflexus (AMARE); assay: Post-emergence biological efficacy (Example 14); conditions: Amaranthus retroflexus, 312 h; post-emergence, 1,000 g/ha, after 13 days; read-out: Percentage damage AMARE
Protocol: as §3, with “for 8 days” for “for one day”, “or 1000 g/ha” for “or 1000g/ha”, “grown on” for “grown”, “in a” for “in the”, “evaluated (100=total” for “evaluated (100 =total”, “plant; 0=no” for “plant; 0 =no”

[21] = system: Echinochloa crus-galli (ECHCG); assay: Post-emergence biological efficacy (Example 14); conditions: Echinochloa crus-galli, 312 h; post-emergence, 1,000 g/ha, after 13 days; read-out: Percentage damage ECHCG
Protocol: as §3, with “for 8 days” for “for one day”, “or 1000 g/ha” for “or 1000g/ha”, “grown on” for “grown”, “in a” for “in the”, “evaluated (100=total” for “evaluated (100 =total”, “plant; 0=no” for “plant; 0 =no”

[22] = system: Ipomea hederaceae (IPOHE); assay: Post-emergence biological efficacy (Example 14); conditions: Ipomoea hederacea, 312 h; post-emergence, 1,000 g/ha, after 13 days; read-out: Percentage damage IPOHE
Protocol: as §3, with “for 8 days” for “for one day”, “or 1000 g/ha” for “or 1000g/ha”, “grown on” for “grown”, “in a” for “in the”, “evaluated (100=total” for “evaluated (100 =total”, “plant; 0=no” for “plant; 0 =no”

[23] = system: Setaria faberi (SETFA); assay: Post-emergence biological efficacy (Example 14); conditions: Setaria faberi, 312 h; post-emergence, 1,000 g/ha, after 13 days; read-out: Percentage damage SETFA
Protocol: as §3, with “for 8 days” for “for one day”, “or 1000 g/ha” for “or 1000g/ha”, “grown on” for “grown”, “in a” for “in the”, “evaluated (100=total” for “evaluated (100 =total”, “plant; 0=no” for “plant; 0 =no”

[24] = system: Solanum nigrum (SOLNI); assay: Post-emergence biological efficacy (Example 14); conditions: Solanum nigrum, 312 h; post-emergence, 1,000 g/ha, after 13 days; read-out: Percentage damage SOLNI
Protocol: as §3, with “for 8 days” for “for one day”, “or 1000 g/ha” for “or 1000g/ha”, “grown on” for “grown”, “in a” for “in the”, “evaluated (100=total” for “evaluated (100 =total”, “plant; 0=no” for “plant; 0 =no”

For C=Cc1c(N)nc(-c2ccc(Cl)c(F)c2)nc1C(=O)OC [Compound 9, 4-Amino-2-(4-chloro-3-fluorophenyl)-5-ethenyl-6-methoxycarbonyl-pyrimidine], the pest or weed control at 125 g/ha ([1]; 125 g/ha) was 80%, the pest or weed control at 125 g/ha ([2]; 125 g/ha) was 100% and the pest or weed control at 125 g/ha ([3]; 125 g/ha) was 90%. The pest or weed control at 125 g/ha ([4]; 125 g/ha) was 80%, the plant injury at 125 g/ha ([5]; 125 g/ha) was 0% and the pest or weed control at 125 g/ha ([6]; 125 g/ha) was 80%. For the same compound, the pest or weed control at 125 g/ha ([7]; 125 g/ha) was 90%, the pest or weed control at 125 g/ha ([8]; 125 g/ha) was 70% and the pest or weed control at 125 g/ha ([9]; 125 g/ha) was 80%. The pest or weed control at 125 g/ha ([10]; 125 g/ha) was 80%, the pest or weed control at 125 g/ha ([11]; 125 g/ha) was 80% and the pest or weed control at 125 g/ha ([12]; 125 g/ha) was 100%.
In the case of C=Cc1c(N)nc(-c2ccc(Cl)cc2F)nc1C(=O)OC [Compound 10, 4-Amino-2-(4-chloro-2-fluorophenyl)-5-ethenyl-6-methoxycarbonyl-pyrimidine], the pest or weed control at 15 g/ha ([1]; 15 g/ha) is reported as 90%, the pest or weed control at 15 g/ha ([2]; 15 g/ha) is reported as 50% and the pest or weed control at 15 g/ha ([3]; 15 g/ha) is reported as 80%. The pest or weed control at 15 g/ha ([4]; 15 g/ha) was 50%, the plant injury at 15 g/ha ([5]; 15 g/ha) was 0% and the pest or weed control at 15 g/ha ([6]; 15 g/ha) was 70%. For the same compound, the pest or weed control at 15 g/ha ([7]; 15 g/ha) was 30%, the pest or weed control at 15 g/ha ([8]; 15 g/ha) was 70% and the pest or weed control at 15 g/ha ([9]; 15 g/ha) was 50%. For the same compound, the pest or weed control at 15 g/ha ([10]; 15 g/ha) was 80%, the pest or weed control at 15 g/ha ([11]; 15 g/ha) was 10% and the pest or weed control at 15 g/ha ([12]; 15 g/ha) was 70%.
C=Cc1c(NCc2ccco2)nc(-c2ccc(Cl)c(OC)c2F)nc1C(=O)OCCOCC [Compound 48, 2-(4-Chloro-2-fluoro-3-methoxyphenyl)-5-ethenyl-6-(2-ethoxy-ethoxy)carbonyl-4-(furan-2-ylmethylamino)-pyrimidine] gave a pest or weed control at 1000 g/ha [13] of 0%, a pest or weed control at 1000 g/ha [14] of 0% and a pest or weed control at 1000 g/ha [15] of 0%. The pest or weed control at 1000 g/ha [16] was 0%, the pest or weed control at 1000 g/ha [17] was 0% and the pest or weed control at 1000 g/ha [18] was 0%. The pest or weed control at 1000 g/ha [19] was 0%, the pest or weed control at 1000 g/ha [20] was 40% and the pest or weed control at 1000 g/ha [21] was 0%. It also gave a pest or weed control at 1000 g/ha [22] of 60%, a pest or weed control at 1000 g/ha [23] of 0% and a pest or weed control at 1000 g/ha [24] of 50%.
C=Cc1c(N)nc(C2CC2)nc1C(=O)OC [Ref. Ex. C, 4-Amino-2-cyclopropyl-5-ethenyl-6-methoxycarbonyl-pyrimidine, reference compound] was tested, and the pest or weed control at 8 g/ha ([1]; 8 g/ha) was 30%, the pest or weed control at 8 g/ha ([2]; 8 g/ha) was 10% and the pest or weed control at 8 g/ha ([3]; 8 g/ha) was 60%. It also gave a pest or weed control at 8 g/ha ([4]; 8 g/ha) of 30%, a plant injury at 8 g/ha ([5]; 8 g/ha) of 70% and a pest or weed control at 8 g/ha ([6]; 8 g/ha) of 70%. For the same compound, the pest or weed control at 8 g/ha ([7]; 8 g/ha) was 0%, the pest or weed control at 8 g/ha ([8]; 8 g/ha) was 0% and the pest or weed control at 8 g/ha ([9]; 8 g/ha) was 40%. It also gave a pest or weed control at 8 g/ha ([10]; 8 g/ha) of 0%, a pest or weed control at 8 g/ha ([11]; 8 g/ha) of 50% and a pest or weed control at 8 g/ha ([12]; 8 g/ha) of 0%.
